Test results: PubChem BioAssay AID256 (DTP/NCI, 2004)
“And” between values parts separate entries of the source, which are not always exact repeats. Identical values can stand only once. Inconclusive results and toxic doses are left out. How the source made its calls: active means survival T/C of 150% or more; inactive means T/C below 125% in these data.

Tested on: CD2F1 mice, L1210 leukemia ip, survival T/C
Assay: NCI In Vivo Anticancer Drug Screen. Data for tumor model L1210 Leukemia (intraperitoneal) in CD2F1 (CDF1) mice
Conditions: higher = longer survival
Procedure, shortened: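 Tumor-bearing mice (transplanted tumor) were split into treated and vehicle control groups, and the measured endpoint of each treated group was divided by that of its vehicle controls.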

[1] = endpoint: mean survival time, dose: 100.0 mg/kg/injection, schedule: Q01DX001 (ip), vehicle: saline
[2] = endpoint: mean survival time, dose: 200.0 mg/kg/injection, schedule: Q01DX001 (ip), vehicle: saline
[3] = endpoint: mean survival time, dose: 400.0 mg/kg/injection, schedule: Q01DX001 (ip), vehicle: saline
[4] = endpoint: mean survival time, dose: 100.0 mg/kg/injection, schedule: Q04DX003 (ip), vehicle: Klucel (hydroxypropylcellulose) (HPC)
[5] = endpoint: mean survival time, dose: 200.0 mg/kg/injection, schedule: Q04DX003 (ip), vehicle: Klucel (hydroxypropylcellulose) (HPC)
[6] = endpoint: mean survival time, dose: 100.0 mg/kg/injection, schedule: Q01DX001 (ip), vehicle: saline with Tween-80
[7] = endpoint: mean survival time, dose: 200.0 mg/kg/injection, schedule: Q01DX001 (ip), vehicle: saline with Tween-80
[8] = endpoint: mean survival time, dose: 400.0 mg/kg/injection, schedule: Q01DX001 (ip), vehicle: saline with Tween-80
[9] = endpoint: mean survival time, dose: 400.0 mg/kg/injection, schedule: Q04DX003 (ip), vehicle: Klucel (hydroxypropylcellulose) (HPC)
[10] = endpoint: mean survival time, dose: 100.0 mg/kg/injection, schedule: Q01DX009 (ip), vehicle: saline with Tween-80
[11] = endpoint: mean survival time, dose: 200.0 mg/kg/injection, schedule: Q01DX009 (ip), vehicle: saline with Tween-80
[12] = endpoint: mean survival time, dose: 100.0 mg/kg/injection, schedule: Q04DX003 (ip), vehicle: saline with Tween-80
[13] = endpoint: mean survival time, dose: 200.0 mg/kg/injection, schedule: Q04DX003 (ip), vehicle: saline with Tween-80
[14] = endpoint: mean survival time, dose: 400.0 mg/kg/injection, schedule: Q04DX003 (ip), vehicle: saline with Tween-80
[15] = endpoint: mean survival time, dose: 200.0 mg/kg/injection, schedule: Q04DX002 (ip), vehicle: saline with Tween-80
[16] = endpoint: mean survival time, dose: 400.0 mg/kg/injection, schedule: Q04DX002 (ip), vehicle: saline with Tween-80
[17] = endpoint: mean survival time, dose: 12.5 mg/kg/injection, schedule: Q01DX009 (ip), vehicle: saline with Tween-80

Measured: T/C

O=C(O)/C=C/CC(=O)O
inactive: [1] 92 % of control | [2] 97 % of control | [3] 101 % of control

O=C/C=C/c1ccc([N+](=O)[O-])cc1
inactive: [4] 90 % of control | [5] 90 % of control

Nc1cccnc1
inactive: endpoint: mean survival time, dose: 5.0 mg/kg/injection, schedule: Q04DX003 (ip), vehicle: saline 92 % of control | endpoint: mean survival time, dose: 10.0 mg/kg/injection, schedule: Q04DX003 (ip), vehicle: saline 94 % of control | endpoint: mean survival time, dose: 20.0 mg/kg/injection, schedule: Q04DX003 (ip), vehicle: saline 94 % of control

C(=N\Nc1ccccc1)/c1ccccc1
inactive: [6] 107 % of control | [4] 106 % of control | [7] 94 % of control | [5] 98 % of control | [8] 100 % of control | [9] 96 % of control

Cn1ncc(C(=O)O)c1[N+](=O)[O-]
inactive: [1] 102 % of control | [2] 103 % of control | [3] 94 % of control

CCCCCCCCCC(=O)CCCCCCC
inactive: endpoint: mean survival time, dose: 100.0 mg/kg/injection, schedule: Q04DX003 (ip), vehicle: other 105 % of control | endpoint: mean survival time, dose: 200.0 mg/kg/injection, schedule: Q04DX003 (ip), vehicle: other 92 % of control | endpoint: mean survival time, dose: 400.0 mg/kg/injection, schedule: Q04DX003 (ip), vehicle: other 107 % of control

Cc1ccc2nc(-c3cccc([N+](=O)[O-])c3)oc(=O)c2c1
inactive: [10] 97 % of control | [11] 96 % of control | endpoint: mean survival time, dose: 400.0 mg/kg/injection, schedule: Q01DX009 (ip), vehicle: saline with Tween-80 94 % of control

Cc1cn(C2CC3OP(=O)(N(C)C)OCC3O2)c(=O)[nH]c1=O (stereo not given)
inactive: endpoint: mean survival time, dose: 12.5 mg/kg/injection, schedule: Q01DX005 (ip), vehicle: water 105 % of control | endpoint: mean survival time, dose: 25.0 mg/kg/injection, schedule: Q01DX005 (ip), vehicle: water 100 % of control | endpoint: mean survival time, dose: 50.0 mg/kg/injection, schedule: Q01DX005 (ip), vehicle: water 109 % of control | endpoint: mean survival time, dose: 100.0 mg/kg/injection, schedule: Q01DX005 (ip), vehicle: water 97 % of control | endpoint: mean survival time, dose: 200.0 mg/kg/injection, schedule: Q01DX005 (ip), vehicle: water 103 % of control

C#CC(OC(=O)NC(CCSC)C(=O)OC)(c1ccccc1)c1ccccc1 (stereo not given)
inactive: endpoint: mean survival time, dose: 25.0 mg/kg/injection, schedule: Q01DX001 (ip), vehicle: saline with Tween-80 102 % of control | endpoint: mean survival time, dose: 50.0 mg/kg/injection, schedule: Q01DX001 (ip), vehicle: saline with Tween-80 94 % of control | [6] 102 % of control

O=C(O)CC1(Br)C(=O)Nc2ccccc21 (stereo not given)
inactive: [4] 98 % of control | [5] 102 % of control | [9] 98 % of control

CC1=CC(C)N(C(=O)c2ccc(Cl)cc2)CCN1C(=O)c1ccc(Cl)cc1 (stereo not given)
inactive: [12] 98 % of control | [13] 102 % of control | [14] 102 % of control

Clc1ccc(COC(Cn2ccnc2)c2ccc(Cl)cc2Cl)c(Cl)c1 (stereo not given)
inactive: [12] 91 % of control | [13] 93 % of control

COc1ccc(CCN2CC34C=CC(O3)C(C(=O)O)C4C2=O)cc1OCc1ccccc1 (stereo not given)
inactive: endpoint: mean survival time, dose: 100.0 mg/kg/injection, schedule: Q04DX002 (ip), vehicle: saline with Tween-80 95 % of control | [15] 95 % of control | [16] 95 % of control

Nc1cc(Cl)c([N+](=O)[O-])cc1O
inactive: endpoint: mean survival time, dose: 50.0 mg/kg/injection, schedule: Q01DX009 (ip), vehicle: Klucel (hydroxypropylcellulose) (HPC) 91 % of control | endpoint: mean survival time, dose: 100.0 mg/kg/injection, schedule: Q01DX009 (ip), vehicle: Klucel (hydroxypropylcellulose) (HPC) 94 % of control | endpoint: mean survival time, dose: 200.0 mg/kg/injection, schedule: Q01DX009 (ip), vehicle: Klucel (hydroxypropylcellulose) (HPC) 94 % of control

COc1ccc2c(NCCCCCCNc3c4ccccc4nc4cc(OC)ccc34)c3ccccc3nc2c1
inactive: endpoint: mean survival time, dose: 0.07 mg/kg/injection, schedule: Q01DX009 (ip), vehicle: other 102 % of control | endpoint: mean survival time, dose: 0.15 mg/kg/injection, schedule: Q01DX009 (ip), vehicle: other 102 % of control | endpoint: mean survival time, dose: 0.16 mg/kg/injection, schedule: Q01DX009 (ip), vehicle: lactic acid 124 % of control | endpoint: mean survival time, dose: 0.31 mg/kg/injection, schedule: Q01DX009 (ip), vehicle: lactic acid 110 % of control | endpoint: mean survival time, dose: 0.31 mg/kg/injection, schedule: Q01DX009 (ip), vehicle: other 105 % of control | endpoint: mean survival time, dose: 0.62 mg/kg/injection, schedule: Q01DX009 (ip), vehicle: lactic acid 113 % of control | endpoint: mean survival time, dose: 0.63 mg/kg/injection, schedule: Q01DX009 (ip), vehicle: other 100 % of control | endpoint: mean survival time, dose: 1.25 mg/kg/injection, schedule: Q01DX009 (ip), vehicle: lactic acid 121 % of control and 122 % of control | endpoint: mean survival time, dose: 1.25 mg/kg/injection, schedule: Q01DX009 (ip), vehicle: other 107 % of control | endpoint: mean survival time, dose: 2.5 mg/kg/injection, schedule: Q01DX009 (ip), vehicle: lactic acid 122 % of control | endpoint: mean survival time, dose: 5.0 mg/kg/injection, schedule: Q01DX009 (ip), vehicle: lactic acid 116 % of control | endpoint: mean survival time, dose: 10.0 mg/kg/injection, schedule: Q01DX009 (ip), vehicle: lactic acid 122 % of control

O=c1cc(-c2ccccc2)[nH]c(-c2ccccc2)c1
inactive: [6] 100 % of control | [10] 89 % of control | [12] 89 % of control | [7] 88 % of control | [11] 88 % of control | [13] 93 % of control | [8] 89 % of control | [14] 86 % of control

CC1=C/C(O)CC(=O)Cc2nc(co2)C(=O)N2CCC=C2C(=O)OC(C(C)C)C(C)/C=C\C(=O)NC/C=C\1 (stereo not given)
inactive: endpoint: mean survival time, dose: 1.0 micrograms/kg/injection, schedule: Q01DX009 (ip), vehicle: Klucel (hydroxypropylcellulose) (HPC) 98 % of control | endpoint: mean survival time, dose: 2.0 micrograms/kg/injection, schedule: Q01DX009 (ip), vehicle: Klucel (hydroxypropylcellulose) (HPC) 101 % of control | endpoint: mean survival time, dose: 4.0 micrograms/kg/injection, schedule: Q01DX009 (ip), vehicle: Klucel (hydroxypropylcellulose) (HPC) 97 % of control | endpoint: mean survival time, dose: 8.0 micrograms/kg/injection, schedule: Q01DX009 (ip), vehicle: Klucel (hydroxypropylcellulose) (HPC) 92 % of control | endpoint: median survival time, dose: 25.0 mg/kg/injection, schedule: Q01DX009 (ip), vehicle: Klucel (hydroxypropylcellulose) (HPC) 98 % of control | endpoint: median survival time, dose: 50.0 mg/kg/injection, schedule: Q01DX009 (ip), vehicle: Klucel (hydroxypropylcellulose) (HPC) 106 % of control | endpoint: median survival time, dose: 100.0 mg/kg/injection, schedule: Q01DX009 (ip), vehicle: Klucel (hydroxypropylcellulose) (HPC) 105 % of control | endpoint: median survival time, dose: 200.0 mg/kg/injection, schedule: Q01DX009 (ip), vehicle: Klucel (hydroxypropylcellulose) (HPC) 104 % of control

CC1CN(Cc2ccccc2)C1
inactive: endpoint: mean survival time, dose: 12.5 mg/kg/injection, schedule: Q01DX001 (ip), vehicle: acetone 86 % of control | endpoint: mean survival time, dose: 25.0 mg/kg/injection, schedule: Q01DX001 (ip), vehicle: acetone 96 % of control | endpoint: mean survival time, dose: 50.0 mg/kg/injection, schedule: Q01DX001 (ip), vehicle: acetone 94 % of control

OCCC(c1ccccc1)C1CCCCN1 (stereo not given)
inactive: endpoint: mean survival time, dose: 75.0 mg/kg/injection, schedule: Q01DX001 (ip), vehicle: saline 101 % of control | endpoint: mean survival time, dose: 150.0 mg/kg/injection, schedule: Q01DX001 (ip), vehicle: saline 100 % of control

CC(C)NC(C)C
inactive: [15] 98 % of control | [16] 98 % of control

CCCCCCCCCCCCCCCCCCNC(=S)NCCCCCCCCCCCCCCCCCC
inactive: [17] 97 % of control | endpoint: mean survival time, dose: 25.0 mg/kg/injection, schedule: Q01DX009 (ip), vehicle: saline with Tween-80 98 % of control | endpoint: mean survival time, dose: 50.0 mg/kg/injection, schedule: Q01DX009 (ip), vehicle: saline with Tween-80 90 % of control and 98 % of control | [10] 90 % of control

Nc1nc(-c2ccc([N+](=O)[O-])cc2)c([N+](=O)[O-])c(=O)[nH]1
inactive: endpoint: mean survival time, dose: 3.13 mg/kg/injection, schedule: Q01DX009 (ip), vehicle: saline with Tween-80 96 % of control | endpoint: mean survival time, dose: 6.25 mg/kg/injection, schedule: Q01DX009 (ip), vehicle: saline with Tween-80 95 % of control | endpoint: mean survival time, dose: 12.5 mg/kg/injection, schedule: Q01DX001 (ip), vehicle: saline with Tween-80 94 % of control | [17] 95 % of control

[Cu+2].[NH-]CC(=O)O.[NH-]CC(=O)O
inactive: endpoint: mean survival time, dose: 5.0 mg/kg/injection, schedule: Q01DX009 (ip), vehicle: saline 98 % of control | endpoint: mean survival time, dose: 10.0 mg/kg/injection, schedule: Q01DX009 (ip), vehicle: saline 104 % of control
